US11903912B2, “Composition for preventing and treating breast cancer including selenopsammaplin A as active ingredients” (Seoul National University R & DB Foundation, priority 2019, dated 2024)

How the values were obtained:
Type in all cases: cell-based
[1] = test system: SNU638 human gastric cancer cells; assay: SRB cytotoxicity test, SNU638; conditions: SRB assay, cultured 3 days
Procedure: (§1) A cytotoxicity test was performed using synthesized selenopsammaplin A and derivatives thereof (Lee S K et al […] Chem Biol Interact 115:215-28).
(§2) The cytotoxicity test was performed on a total of five representative cancer cell lines. The cytotoxicity of each compound was measured using an SRB assay method (human lung cancer cells, A549; human colon cancer cells, HCT116; human breast cancer cells, MDA-MB231; human liver cancer cells, SK-HEP-1; human gastric cancer cells, SNU638).
(§3) Each cell line was sub-cultured once or twice using Roswell Park Memorial Institute (RPMI) medium 1640 (RPMI 1640) or Dulbecco's Modified Eagle's Medium (DMEM) containing 10% fetal bovine serum (FBS) inactivated by heat, 100 units/mL of penicillin, 100 μg/mL of streptomycin, and 250 ng/mL of amphotericin B at 37° C. for 1 week under a 5% CO2 condition. All cells were […] in liquid nitrogen, and then passaged three or more times to be used in the experiment. The effects of compounds on cell growth were measured using a sulforhodamine B (SRB) method (Lee et al (1998) Chemico-Biol Interact 115:215-228).
(§4) Specifically, each human cancer cell line used in the present invention was sub-cultured in an RPMI medium containing 10% FBS, 1% PSF, and the like, and 10 μl of a sample dissolved in 10% DMSO and 190 μl (4-5×10^4 cells/ml) of the cell suspension were added to each well of a 96-well plate and cultured for 3 days. 190 μl of the cell suspension was added to at least 16 wells and cultured for 30 minutes, and used as a zero-day control. The cultured cells were fixed with 10% trichloroacetic acid (TCA) and then stained with an SRB solution, and the staining solution was dissolved with 10 mM Tris-base, and then absorbance at 515 nm was measured. Using the case of culturing in 10% DMSO as a control, cell viability according to each test material treatment was measured using Equation 1 below. Etoposide was used as a positive control. % Viability=(OD(sample)−OD(0-day))/(OD(10% DMSO)−OD(0-day))×100 [Equation 1]
(§5) Assuming that a control not-treated with the sample was set at 100%, the values of sample-treated groups were expressed as percentage with respect to the control, and each test material treatment results were obtained as the mean±SEM of two or three tests. The IC50 value is the concentration of the test material for a 50% survival rate.

[2] = test system: HCT116 human colon cancer cells; assay: SRB cytotoxicity test, HCT116; conditions: SRB assay, cultured 3 days
Procedure: as §1, §2, §3, §4, §5

[3] = test system: SK-HEP-1 human liver cancer cells; assay: SRB cytotoxicity test, SK-HEP-1; conditions: SRB assay, cultured 3 days
Procedure: as §1, §2, §3, §4, §5

[4] = test system: MDA-MB231 human breast cancer cells; assay: SRB cytotoxicity test, MDA-MB231; conditions: SRB assay, cultured 3 days
Procedure: as §1, §2, §3, §4, §5

DOT1L = target: T1, DOT1L (Homo sapiens, UniProt Q8TEK3); assay: Inhibition of DOT1L methylation (H3K79) by western blotting; conditions: breast cancer cell line, FIG. 3
T1 construct: based on the finding that DOT1L was overexpressed in the breast cancer cell line; endogenous in cells
From the text: As confirmed in Example 1, based on the finding that DOT1L was overexpressed in the breast cancer cell line, the effects of the derivatives of the present invention on the methylation of the histone 3 lysine 79 (H3K79) residue, which is an in-vivo target of DOT1L, were examined by western blotting.

[5] = test system: A549 human lung cancer cells; assay: SRB cytotoxicity test, A549; conditions: SRB assay, cultured 3 days
Procedure: as §1, §2, §3, §4, §5

T1 sequence (Q8TEK3 whole entry): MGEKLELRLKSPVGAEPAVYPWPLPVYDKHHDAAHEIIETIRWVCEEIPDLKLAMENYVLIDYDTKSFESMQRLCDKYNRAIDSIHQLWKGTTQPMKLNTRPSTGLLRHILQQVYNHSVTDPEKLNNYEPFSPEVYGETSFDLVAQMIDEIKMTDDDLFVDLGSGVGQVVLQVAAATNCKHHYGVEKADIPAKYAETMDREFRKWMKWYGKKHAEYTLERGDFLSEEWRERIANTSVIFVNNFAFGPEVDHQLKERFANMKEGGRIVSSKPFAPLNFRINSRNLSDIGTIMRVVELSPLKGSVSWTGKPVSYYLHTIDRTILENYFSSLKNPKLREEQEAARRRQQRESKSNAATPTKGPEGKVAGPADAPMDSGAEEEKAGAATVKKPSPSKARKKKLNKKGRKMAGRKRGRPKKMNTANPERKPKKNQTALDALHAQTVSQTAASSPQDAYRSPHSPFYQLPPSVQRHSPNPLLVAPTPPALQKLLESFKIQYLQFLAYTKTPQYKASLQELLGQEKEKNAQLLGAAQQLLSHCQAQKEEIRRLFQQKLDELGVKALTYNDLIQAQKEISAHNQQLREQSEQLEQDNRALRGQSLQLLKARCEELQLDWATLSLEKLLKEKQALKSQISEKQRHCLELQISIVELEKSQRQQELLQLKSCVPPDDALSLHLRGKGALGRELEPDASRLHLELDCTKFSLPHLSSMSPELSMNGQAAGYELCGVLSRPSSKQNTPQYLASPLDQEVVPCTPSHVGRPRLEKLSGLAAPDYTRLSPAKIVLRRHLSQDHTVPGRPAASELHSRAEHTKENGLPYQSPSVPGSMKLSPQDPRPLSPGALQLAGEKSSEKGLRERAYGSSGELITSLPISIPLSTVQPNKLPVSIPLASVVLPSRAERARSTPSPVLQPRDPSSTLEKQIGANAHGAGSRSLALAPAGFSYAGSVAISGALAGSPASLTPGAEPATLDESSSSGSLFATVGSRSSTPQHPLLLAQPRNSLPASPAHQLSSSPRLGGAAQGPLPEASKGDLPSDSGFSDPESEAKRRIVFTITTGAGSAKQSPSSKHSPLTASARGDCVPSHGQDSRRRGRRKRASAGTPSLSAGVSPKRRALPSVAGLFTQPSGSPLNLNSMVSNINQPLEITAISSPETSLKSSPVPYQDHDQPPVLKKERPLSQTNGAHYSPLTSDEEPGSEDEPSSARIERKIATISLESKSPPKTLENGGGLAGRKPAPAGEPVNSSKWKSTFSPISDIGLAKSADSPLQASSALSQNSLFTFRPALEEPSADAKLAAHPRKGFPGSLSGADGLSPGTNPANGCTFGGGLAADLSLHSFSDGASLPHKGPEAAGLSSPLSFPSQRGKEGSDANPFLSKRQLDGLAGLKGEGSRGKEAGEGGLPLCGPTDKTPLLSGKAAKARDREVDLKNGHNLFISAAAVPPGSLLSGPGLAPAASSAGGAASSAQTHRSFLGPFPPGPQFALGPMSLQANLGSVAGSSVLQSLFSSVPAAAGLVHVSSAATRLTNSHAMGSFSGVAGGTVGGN

Compound | IC50 [1] [nM] | IC50 [2] [nM] | IC50 [3] [nM] | IC50 [4] [nM] | inhibitory effect on H3K79 methylation (DOT1L) | IC50 [5] [nM] | IC50 ([1]; SNU-638, 72 h) [nM] | IC50 ([2]; HCT-116, 72 h) [nM] | IC50 ([3]; SK-HEP1, 72 h) [nM] | IC50 ([4]; MDA-MB-231, 72 h) [nM] | IC50 ([5]; A549, 72 h) [nM]
(2E,2′E)-N,N′-(diselenediylbis(ethane-2,1-diyl))bis(2-(hydroxyimino)-3-(4-nitrophenyl)propanamide) [Compound 11] | 60 | 90 | 170 | 90 | excellent | 90 | – | – | – | – | –
COc1cc([C@@H]2c3cc4c(cc3[C@@H](O[C@@H]3O[C@@H]5CO[C@@H](C)O[C@H]5[C@H](O)[C@H]3O)[C@H]3COC(=O)[C@H]23)OCO4)cc(OC)c1O [Etoposide, reference compound] | – | – | – | – | – | – | 200 | 1200 | 400 | 8700 | 300
(2E,2′E)-N,N′-(diselenediylbis(ethane-2,1-diyl))bis(3-(4-benzyloxy)phenyl)-2-(hydroxyimino)propanamide) [Compound 10] | 410 | 100 | 280 | 140 | excellent | 140 | – | – | – | – | –
O=C(NCC[Se][Se]CCNC(=O)/C(Cc1ccc(O)c(Br)c1)=N/O)/C(Cc1ccc(O)c(Br)c1)=N/O [Compound 1, (2E,2′E)-N,N′-(diselenediylbis(ethane-2,1-diyl))bis(3-(3-bromo-4-hydroxyphenyl)-2-(hydroxyimino)propanamide)] | 20 | – | 210 | 160 | excellent | 30 | – | – | – | – | –
(2E,2′E)-N,N′-(diselenediylbis(ethane-2,1-diyl))bis(3-(3,4-difluorophenyl)-2-(hydroxyimino)propanamide) [Compound 5] | 50 | 180 | 270 | 420 | – | 330 | – | – | – | – | –
(2E,2′E)-N,N′-(diselenediylbis(ethane-2,1-diyl))bis(2-(hydroxyimino)-3-(naphthalene-2-yl)propanamide) [Compound 3] | 270 | 120 | 170 | 190 | – | 380 | – | – | – | – | –
(2E,2′E)-N,N′-(diselenediylbis(ethane-2,1-diyl))bis(3,4-dichlorophenyl)-2-(hydroxyimino)propanamide) [Compound 7] | 180 | 520 | 320 | 250 | – | 280 | – | – | – | – | –
(2E,2′E)-N,N′-(diselenediylbis(ethane-2,1-diyl))bis(3-(4-chlorophenyl)-2-(hydroxyimino)propanamide) [Compound 6] | 220 | 280 | 330 | 330 | – | 250 | – | – | – | – | –
(2E,2′E)-N,N′-(diselenediylbis(ethane-2,1-diyl))bis(3-(3-chloro-4-hydroxyphenyl)-2-(hydroxyimino)propanamide) [Compound 13] | 10 | – | 110 | 170 | – | 20 | – | – | – | – | –
(2E,2′E)-N,N′-(diselenediylbis(ethane-2,1-diyl))bis(3-(4-ethoxyphenyl)-2-(hydroxyimino)propanamide) [Compound 9] | 30 | 70 | 180 | 200 | excellent | 50 | – | – | – | – | –
O=C(NCCSSCCNC(=O)/C(Cc1ccc(O)c(Br)c1)=N/O)/C(Cc1ccc(O)c(Br)c1)=N/O [Psammaplin A] | 560 | 610 | 1290 | 1310 | – | 1760 | – | – | – | – | –
O=C(NCC[Se][Se]CCNC(=O)/C(Cc1ccc(Br)cc1)=N/O)/C(Cc1ccc(Br)cc1)=N/O [Compound 8, (2E,2′E)-N,N′-(diselenediylbis(ethane-2,1-diyl))bis(3-(4-bromophenyl)-2-(hydroxyimino)propanamide)] | 150 | 170 | – | 390 | – | 310 | – | – | – | – | –
O=C(NCC[Se][Se]CCNC(=O)/C(Cc1ccc(F)cc1)=N/O)/C(Cc1ccc(F)cc1)=N/O [Compound 4, (2E,2′E)-N,N′-(diselenediylbis(ethane-2,1-diyl))bis(3-(4-fluorophenyl)-2-(hydroxyimino)propanamide)] | 70 | 110 | 140 | 130 | – | 100 | – | – | – | – | –
(2E,2′E)-N,N′-(diselenediylbis(ethane-2,1-diyl))bis(3-(4-tert-butyl)phenyl)-2-(hydroxyimino)propanamide) [Compound 12] | 280 | 130 | 190 | 100 | excellent | 100 | – | – | – | – | –
(2E,2′E)-N,N′-(diselenediylbis(ethane-2,1-diyl))bis(3-(3-fluoro-4-hydroxyphenyl)-2-(hydroxyimino)propanamide) [Compound 14] | 20 | – | 130 | 190 | – | 20 | – | – | – | – | –
